Test results published in ChEMBL document CHEMBL4138191, “Organic arsenicals target thioredoxin reductase followed by oxidative stress and mitochondrial dysfunction resulting in apoptosis” (Eur J Med Chem, 2018).
Calls of active or inactive are those of the source. The calls are words filed in the database; no cut-off is given here.

How the values were obtained:
[1] = tested on: MCF7; test: Cytotoxicity against human MCF7 cells after 24 hrs by MTT assay; assay type: functional, cell-based; settings: for IC50: MCF7, 24 h
[2] = tested on: HL-60; test: Induction of ROS generation in human HL60 cells at 1.5 uM after 24 hrs by DCFH-DA staining-based flow cytometry; assay type: functional, cell-based
[3] = tested on: HL-60; test: Induction of cell death in human HL60 cells assessed as decrease in total GSH levels after 24 hrs by MTT assay; assay type: functional, cell-based
[4] = tested on: HL-60; test: Induction of mitochondrial dysfunction in human HL60 cells assessed as increase in intracellular calcium level at 0.75 to 1.5 uM after 4 to 24 hrs by Fluo-3 AM dye-based flow cytometry; assay type: functional, cell-based
[5] = tested on: HL-60; test: Induction of apoptosis in human HL60 cells assessed as less cell quantity at 0.75 to 1.5 uM after 24 hrs by Hoechst 33342 staining-based laser scanning confocal microscopic analysis; assay type: functional
[6] = tested on: HL-60; test: Induction of apoptosis in human HL60 cells assessed as apoptotic cells at 0.75 to 1.5 uM after 24 hrs by Annexin V-FITC/propidium iodide staining-based flow cytometry; assay type: functional
[7] = tested on: HL-60; test: Induction of cell death in human HL60 cells at 1 to 1.5 uM after 24 hrs in presence of […] BSO by MTT assay; assay type: functional, cell-based
[8] = tested on: HL-60; test: Induction of apoptosis in human HL60 cells assessed as cell nuclear shrinkage at 0.75 to 1.5 uM after 24 hrs by Hoechst 33342 staining-based laser scanning confocal microscopic analysis; assay type: functional
[9] = tested on: SGC-7901; test: Cytotoxicity against human SGC7901 cells after 24 hrs by MTT assay; assay type: functional, cell-based; settings: for IC50: SGC-7901, 24 h
[10] = tested on: Liver; test: Induction of mitochondrial dysfunction in Wistar rat liver assessed as swelling at 20 uM in presence of calcium related inhibitor EGTA; assay type: functional; settings: mitochondria
[11] = tested on: Liver; test: Induction of mitochondrial dysfunction in Wistar rat liver assessed as swelling at 20 uM in presence of calcium related inhibitor cyclosporine A; assay type: functional; settings: mitochondria
[12] = tested on: HL-60; test: Induction of cell death in human HL60 cells at 0.4 uM after 24 hrs in presence of […] BSO by MTT assay; assay type: functional, cell-based
[13] = tested on: HL-60; test: Induction of cell death in human HL60 cells at 0.4 uM after 24 hrs in absence of BSO by MTT assay; assay type: functional, cell-based
[14] = tested on: HL-60; test: Cytotoxicity against human HL60 cells after 48 hrs by MTT assay; assay type: functional, cell-based; settings: for IC50: HL-60, 48 h
[15] = tested on: HL-60; test: Induction of cell death in human HL60 cells at 1 to 1.5 uM after 24 hrs in presence of antioxidant DTT by trypan blue assay; assay type: functional, cell-based
[16] = tested on: HL-60; test: Induction of ROS generation in human HL60 cells at 1.5 uM after 24 hrs in presence of antioxidant DTT by DCFH-DA staining-based flow cytometry; assay type: functional, cell-based
[17] = tested on: HL-60; test: Induction of apoptosis in human HL60 cells assessed as incomplete cell membrane at 0.75 to 1.5 uM after 24 hrs by Hoechst 33342 staining-based laser scanning confocal microscopic analysis; assay type: functional
[18] = tested on: SGC-7901; test: Cytotoxicity against human SGC7901 cells by MTT assay; assay type: functional, cell-based; settings: TDE = time-dependent effect
[19] = biological target: T1, Thioredoxin reductase 1, cytoplasmic (Homo sapiens) (UniProt Q16881); test: Inhibition of TrxR in human HL60 cells assessed as residual activity at 1.5 using thioredoxin as substrate measured for 5 mins by UV-Vis spectrophotometric analysis; assay type: cell-based
T1 sequence (whole entry): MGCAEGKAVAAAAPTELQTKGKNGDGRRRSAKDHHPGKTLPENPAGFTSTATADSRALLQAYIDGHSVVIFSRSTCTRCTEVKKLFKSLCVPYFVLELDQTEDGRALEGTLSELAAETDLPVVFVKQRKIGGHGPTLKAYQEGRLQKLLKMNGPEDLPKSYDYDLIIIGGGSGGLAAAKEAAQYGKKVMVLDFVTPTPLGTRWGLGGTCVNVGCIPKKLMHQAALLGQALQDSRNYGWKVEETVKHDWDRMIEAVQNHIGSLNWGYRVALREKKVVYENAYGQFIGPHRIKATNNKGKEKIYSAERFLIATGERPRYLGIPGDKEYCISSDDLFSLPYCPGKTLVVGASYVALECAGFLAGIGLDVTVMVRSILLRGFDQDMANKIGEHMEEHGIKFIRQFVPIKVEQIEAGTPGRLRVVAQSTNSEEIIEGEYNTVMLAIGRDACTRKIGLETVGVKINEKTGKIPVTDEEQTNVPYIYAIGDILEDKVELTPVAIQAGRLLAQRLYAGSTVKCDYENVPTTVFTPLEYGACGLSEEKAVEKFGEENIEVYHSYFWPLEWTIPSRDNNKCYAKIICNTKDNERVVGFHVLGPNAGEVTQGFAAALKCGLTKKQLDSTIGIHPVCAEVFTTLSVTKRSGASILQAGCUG

[20] = tested on: HL-60; test: Induction of ROS generation in human HL60 cells at 1.5 uM after 24 hrs in presence of antioxidant lipoic acid by DCFH-DA staining-based flow cytometry; assay type: functional, cell-based
[21] = tested on: HL-60; test: Induction of apoptosis in human HL60 cells assessed as abnormal cellular morphology at 0.75 to 1.5 uM after 24 hrs by Hoechst 33342 staining-based laser scanning confocal microscopic analysis; assay type: functional, cell-based
[22] = tested on: HL-60; test: Potentiation of H2O2-induced cytotoxicity in human HL60 cells assessed as induction of cell death at 1.5 to 2 uM preincubated for 6 hrs followed by compound washout and subsequent H2O2 addition measured after 18 hrs by MTT assay; assay type: functional, cell-based
[23] = tested on: HL-60; test: Reduction of mitochondrial membrane potential in human HL60 cells assessed as decrease in ATP levels at 0.75 to 1.5 uM after 24 hrs; assay type: functional, cell-based
[24] = tested on: HL-60; test: Induction of ROS generation in human HL60 cells at 1.5 uM after 24 hrs in presence of ROS inhibitor NAC by DCFH-DA staining-based flow cytometry; assay type: functional, cell-based
[25] = tested on: HL-60; test: Induction of apoptosis in human HL60 cells assessed as apoptotic body formation at 0.75 to 1.5 uM after 24 hrs by Hoechst 33342 staining-based laser scanning confocal microscopic analysis; assay type: functional, cell-based
[26] = tested on: HL-60; test: Induction of mitochondrial dysfunction in human HL60 cells assessed as increase in cytochome c levels in cytosol at 1.5 uM after 24 hrs by ELISA relative to control; assay type: functional
[27] = tested on: HL-60; test: Induction of ROS generation in human HL60 cells assessed as reduction in intracellular thiols up to 2.5 uM incubated for 12 to 24 hrs by DTNB titration method; assay type: functional, cell-based

| Structure (SMILES) | Activity [1] | IC50 [1] [µM] | Activity [2] | Activity [3] | Activity [4] | Activity [5] | Activity [6] [%] | Activity [7] | Activity [8] | Activity [9] | IC50 [9] [µM] | Activity [10] | Activity [11] | Activity [12] | Activity [13] | Activity [14] | IC50 [14] [µM] | Activity [15] | Activity [16] | Activity [17] | other results |
| --- | --- | --- | --- | --- | --- | --- | --- | --- | --- | --- | --- | --- | --- | --- | --- | --- | --- | --- | --- | --- | --- |
| O=C(Nc1ccc([As]2SCCCS2)cc1)c1ccccc1O | Dose-dependent effect | 11.9 | Active | Dose-dependent effect | Active | Active | 40 | Active | Active | Dose-dependent effect | 14.5 | inactive | inactive | Active | Active | Dose-dependent effect | 0.69 | inactive | inactive | Active | Activity [18]: Tde; inhibition [19]: Dose-dependent effect; Activity [20]: inactive; Activity [21]: Active; Activity [22]: Active; Activity [23]: Active; Activity [24]: inactive; Activity [25]: Active; fold change (FC) [26]: 2; Activity [27]: Active |
| Oc1ccccc1/C=N/c1ccc([As]2SCCCS2)cc1 | Dose-dependent effect | 5.7 | Active | Dose-dependent effect | Active | Active | 40 | Active | Active | Dose-dependent effect | 7.69 | inactive | inactive | Active | Active | Dose-dependent effect | 0.71 | inactive | inactive | Active | Activity [18]: Tde; inhibition [19]: Dose-dependent effect; Activity [20]: inactive; Activity [21]: Active; Activity [22]: Active; Activity [23]: Active; Activity [24]: inactive; Activity [25]: Active; fold change (FC) [26]: 2; Activity [27]: Active |
